Data taken from US20080051413A1, “Nitrophenylpiperazine derivative of xanthine which relaxes tracheal airway and increases respiratory performance” (KAOHSIUNG MEDICAL UNIVERSITY, priority 2006, published 2008).

Key:
[1] = test system: carbachol (1 _M)-precontracted guinea pig trachea; assay: Isolated tracheal preparation, measurement of tension; details: 100 _M, carbachol (1 _M)-precontracted, EP+
Procedure: Isolated Tracheal preparation and Measurement of Tension: Guinea pigs (350-450 g) were anesthetized with pentobarbital (70 mg/kg) i.p. and killed by a sharp blow on the neck, followed by cervical dislocation. The trachea was excised, cleaned of adhering fat and connective tissue, cut transversely into four to five rings, and then opened by cutting longitudinally through the cartilage rings diametrically opposite the tracheal smooth muscle (Hwang T L, Wu C C, and Teng C M (1999) YC-1 potentiates nitric oxide-induced relaxation in guinea-pig trachea. Br J Pharmacol 128:577-584). Then trachea rings were suspended in a 10-ml organ bath containing Krebs' solution (118 mM NaCl, 25 mM NaHCO3, 4.7 mM KCl, 1.2 mM KH2PO4, 1.2 mM MgSO4, 11 mM glucose, and 2.5 mM CaCl2, pH 7.3-7.4) maintained at 37_and aerated with 95% O2 and 5% CO2. Each tracheal tissue sample was subjected to 2 g of initial basal tension. All experiments were carried out in the presence of indomethacin (3 _M) and propranolol (1 _M) to prevent the formation of prostanoids and to inhibit _-adrenergic responses, respectively. Isometric tension was recorded with a force displacement transducer (model FT03; Grass Instruments, Quincy, M A). Before the start of measurements, all preparations were allowed to equilibrate with frequent washing for 1 h. They were first contracted with carbachol (1 _M) to determine the contractility of preparations. This was also done at the end of each experiment. The preparations were then washed and allowed to equilibrate with Krebs' solution for 50 min before being contracted a second time with carbachol (1 _M). When stable constriction to carbachol was reached, concentration responses of KMUP-3 (10, 30, and 100 _M) were obtained. Data were expressed as percentages of the maximum contractile response to carbachol (1 _M).
In experiments to examine the role of epithelium in tracheal relaxation, the epithelial cells were removed mechanically by rubbing the internal surface of trachea with a fine silver wire, and the removal of the epithelial layer was confirmed by histological examination as previously described (Wu et al., 2004).
To examine the possible mechanism of tracheal relaxant effects of KMUP-3, the tracheal strips were pretreated with a K^+ channel blocker, tetraethylammonium (TEA; 10 mM); a KATP channel blocker, glibenclamide (1-M); voltage-dependent K^+ channel blocker, 4-aminopyridine (4-AP, 100 _M); Ca^2+-dependent K^+ channel blockers, apamin (1 _M) and charybdotoxin (ChTX; 0.1 _M); a sGC inhibitor, 1H-[1,2,4]oxadiazolo[4,3-a]quinoxalin-1-one (ODQ; 1 _M); an NOS inhibitor, N—nitro-L-arginine methyl ester (L-NAME; 100 _M); and an adenylate cyclase (AC) inhibitor, SQ 22536 (100 _M) for 30 min prior to the addition of KMUP-3 (10, 30, and 100 _M). In the other experiments, TSMs were precontracted with 60 mM KCl to examine the relaxation achieved by KMUP-3. The KCl solution was prepared by substituting NaCl with KCl (60 mM) in an equimolar amount.

[2] = test system: cultured guinea pig tracheal smooth muscle cells; assay: Expression of PKA and PKG (Western blot); assay type: cell-based; details: 1 _M, 30 min
Procedure: (§1) Cell Culture of Tracheal Smooth Muscle: Guinea pigs (350-450 g) were injected i.p. with a lethal dose of pentobarbital. The tracheas were excised and cut longitudinally through the cartilage. Using a dissecting microscope, TSM strips were dissected from the surrounding parentchyma. The epithelium was removed from the luminal surface, and bands of TSM were gently separated from the underlying connective tissue. Then TSM strips were chopped into small sections (1 mm^3) and incubated in Hanks' balanced salt solution (138 mM NaCl, 4 mM NaHCO3, 5 mM KCl, 0.3 mM KH2PO4, 0.3 mM Na2HPO4, and 1.0 mM glucose) with 0.05% elastase type IV and 0.2% collagenase type IV (Invitrogen, Carlsbad, Calif.) for 30 min at 37_ with gentle shaking. The solution of dissociated smooth muscle cells was centrifuged (6 min at 500 g), and the pellet was resuspended in 1:1 Dulbecco's modified Eagle's medium/Ham's F-12 medium supplemented with 10% fetal bovine serum, 0.244% NaHCO3, and 1% penicillin/streptomycin. Cells were cultured in 25-cm^2 flasks at 37_ in humidified air containing 5% CO2. Confluent cells were detached with 0.25% trypsin-0.02% EDTA at 37_and then subcultured to establish secondary cultures. Cultures were maintained for no more than four passages. They were identified as smooth muscle cells by the typical hill-and-valley appearance, and cellular homogeneity was further confirmed by the presence of smooth muscle specific _-myosin and _-actin immunoreactivity. Indirect immunofluorescence staining for a variety of antigens was carried out by first plating the cells on chamber slides, fixing the cells in 3.7% formaldehyde-phosphate-buffered saline for 10 min, and permeabilizing the cells with phosphate-buffered saline and 0.1% Triton X-100. Cells were then stained with either a mouse monoclonal antibody directed against the amino-terminal 10 amino acids of _-smooth muscle actin or _-myosin (Roche Diagnostics, Indianapolis, Ind.). All cells were stained with fluorescein-labeled goat anti-mouse IgG antibody (Roche Diagnostics).
Expression of PKA and PKG: The expression of PKA and PKG was determined by Western blot as previously described by Wu et al. and Murthy et al. (Wu B N, Lin R J, Lo Y C, Shen K P, Wang C C, Lin Y T, and Chen I J (2004) KMUP-1, a xanthine derivatives, induces relaxation of guinea-pig isolated trachea: the role of the epithelium, cyclic nucleotides and K^+ channels. Br J Pharmacol 142:1105-1114; Murthy K S, Zhou H, and Makhlouf G M (2002) PKA-dependent activation of PDE3A and PDE4 and inhibition of adenylyl cyclase V/VI in smooth muscle. Am J Physiol 282:C508-C517). Guinea pig TSMCs were incubated with KMUP-3 for 30 min. Each of the cell lysates, each containing 1 _g of cellular protein, was electrophoresed in 7.5% SDS-polyacrylamide gel electrophoresis and then transferred to polyvinylidene diflouride membrane (Millipore Corporation, Billerica, Mass.). The membrane was stained with Ponceau S to verify the integrity of the transferred proteins and to monitor the unbiased transfer of all protein samples. The membrane was then washed with 25 ml of TBS (100 mM NaCl, 0.1% and 10 mM Tris-HCl, pH 7.5) for 5 min at room temperature and incubated in 25 ml of blocking buffer (TBS plus 0.1% Tween 20 and 5% nonfat milk) overnight at 4_. In the measurement of protein, the membrane was incubated with appropriate PKARI or PKA1—1— primary antibody (diluted 1:250) in 2 ml of blocking buffer for 1 h at room temperature, washed three times for 5 min each with 15 ml of Tris-buffered saline/Tween 20 (TBS plus 0.1% Tween 20), incubated with horseradish peroxidase-conjugated secondary antibody (1:10,000) in 15 ml of blocking buffer with gentle agitation for 1 h at room temperature, and finally washed three times for 5 min each time with 15 ml of Tris-buffered saline/Tween 20. The membrane was then subjected to enhanced chemiluminescence (GE Healthcare) for the detection of the specific antigen.

[3] = test system: guinea pig tracheal smooth muscle cells; assay: Measurement of cAMP in TSMCs; assay type: cell-based; details: for cAMP accumulation versus vehicle (FIG. 6) / cAMP level: 100 _M, 20 min; for cAMP level: basal/vehicle 62.6±6.4
Procedure: as §1
(§2) Measurement of cAMP and cGMP: Intracellular concentrations of cAMP and cGMP in TSMCs were measured as in our previous reports (Wu B N, Lin R J, Lin C Y, Shen K P, Chiang L C, and Chen I J (2001) A xanthine-based KMUP-1 with cyclic GMP enhancing and K^+ channels opening activities in rat aortic smooth muscle. Br J Pharmacol 134:265-274; Lin R J, Wu B N, Lo Y C, Shen K P, Lin Y T, Huang C H, and Chen I J (2002) KMUP-1 relaxes rabbit corpus cavernosum smooth muscle in vitro and in vivo: involvement of cyclic GMP and K(+) channels, Br J Pharmacol 135:1159-1166). In brief, cells were finally grown in 24-well plates (10^5 cells/well). At confluence, monolayer cells were washed with phosphate-buffered saline and then incubated with KMUP-3 (0.01-100 _M) for 20 min at 37_ in medium. […] The reaction was terminated by replacement of medium with 1 ml of ice-cold 1 N hydrochloric acid. Cells suspensions were sonicated and then centrifuged at 2500 g for 15 min at 4_. Then, the supernatants were lyophilized and the cAMP and cGMP of each sample were determined using commercially available radioimmunoassay kits (GE Healthcare, Little Chalfont, Buckinghamshire, UK).

[4] = test system: guinea pig tracheal smooth muscle cells; assay: Measurement of cGMP in TSMCs; assay type: cell-based; details: for amounts of cGMP versus vehicle (FIG. 6): 100 _M, 20 min
Procedure: as §1, §2

[5] = test system: PDE4 purified from human U-937 pronocytic cells; assay: Phosphodiesterase activity, PDE4; assay type: biochemical; details: 10 _M compound, n = 3
Procedure: Phosphodiesterase Activity: PDE activity was determined by the method of Nicholson et al. (Nicholson C D, Challiss R A, and Shahid M (1991) Differential modulation of tissue function and therapeutic potential of selective inhibitors of cyclic nucleotide phosphodiesterase isonzymes. Trends Pharmaclo Sci 12:19-27). PDE3 and PDE5 purified from human platelets and PDE4 purified from human U-937 pronocytic cells were used. Test compound (10 _M) or vehicle was incubated with 0.2 _g of enzyme and 1 _M cAMP containing 0.01 _M [^3H]cAMP in Tris buffer, pH 7.5, for 20 min at 25_. The reaction was terminated by boiling for 2 min, and the resulting […] was converted to adenosine by the addition of 10 mg/ml snake venom nucleotidase, which is followed by a further incubation at 37_for 10 min. Unhydrolyzed cAMP was bound to AG1-X2 resin, and the remaining [^3H]adenosine in the aqueous phase was quantitated by scintillation counting.

Row | SMILES | relaxation in epithelium-intact trachea (FIG. 3(B)) [1] | cAMP accumulation versus vehicle (FIG. 6) [3] | amounts of cGMP versus vehicle (FIG. 6) [4] | also measured
1 | CC1(C)Oc2ccc(C#N)cc2[C@@H](N2CCCC2=O)[C@@H]1O [levcromakalim, reference compound] | displayed relaxation effects |  |  | 
2 | Nc1ncnc2c1nc(Br)n2[C@@H]1O[C@@H]2COP(=O)(O)O[C@H]2[C@H]1O [8-Br-cAMP, reference compound] |  |  |  | expression of immunoreactive PKARI protein (FIG. 7(A)) [2]: increased the expression of PKARI
3 | Cc1[nH]c(=O)c(C#N)cc1-c1ccncc1 [milrinone, reference compound] | cause relaxations | significant elevations | not observed | 
4 | CC(C)Cn1c(=O)n(C)c(=O)c2[nH]cnc21 [IBMX, 3-isobutyl-1-methylxanthine, reference compound] | cause relaxations |  |  | 
5 | Cn1c(=O)c2[nH]cnc2n(C)c1=O [theophylline, reference compound] | cause relaxations | significant elevations | significantly enhances | PDE4 Inhibition [5]: 7.9±1.2%
6 | Nc1nc2c(nc(Br)n2[C@@H]2O[C@@H]3COP(=O)(O)O[C@H]3[C@H]2O)c(=O)[nH]1 [8-Br-cGMP, reference compound] |  |  |  | expression of PKA1—1— (FIG. 7(B)) [2]: increased the expression of PKA1—1—
7 | Nc1ncnc2c1ncn2C1CCCO1 (stereo not drawn) [SQ 22536, reference compound] |  |  |  | cAMP level [3]: 74.32 ± 7.56 pmol/mg protein
8 | COc1ccc(C2CNC(=O)C2)cc1OC1CCCC1 (stereo not drawn) [rolipram, reference compound] | cause relaxations | significant elevations | not observed | 
9 | CCCOc1ccccc1-c1nc2nn[nH]c2c(=O)[nH]1 [zaprinast, reference compound] | cause relaxations | not so | significantly enhances | 
10 | C=C[C@@]1(C)CC(=O)[C@]2(O)[C@@]3(C)[C@@H](O)CCC(C)(C)[C@@H]3[C@H](O)[C@H](OC(C)=O)[C@@]2(C)O1 [Forskolin, forskolin, reference compound] |  |  |  | cAMP level in presence of SQ 22536 ([3]; 100 _M compound plus SQ 22536 (100 _M) pretreatment): 94.33 ± 3.42 pmol/mg protein; cAMP level [3]: 119.15 ± 5.11 pmol/mg protein
11 | O=c1onc2cnc3ccccc3n12 [ODQ, 1H-[1,2,4]oxadiazolo[4,3-a]quinoxalin-1-one, reference compound] |  |  |  | Cyclic GMP level ([4]; 10 _M (ODQ alone), vehicle 1.18 ± 0.06): 1.12 ± 0.03 pmol/mg protein
